The numbers were not newly measured in EP2042172A1, “Use of tocopherol derivatives as inhibitors of the notch signalling pathway” (Inserm, priority 2007, dated 2009), which cites them from elsewhere.

In this series the test system is axonal growth. As to conditions: even in the presence of inhibitory signals (Hanbali et al., 2004); cited from earlier work.

As for `CC1=C(CCCCCCCCCCCCCCCO)C(C)(C)CCC1=O` [tCFA15], the “axonal growth in vitro” value was “promote axonal growth in vitro”.
